According to ChEMBL document CHEMBL1158551, “Click reaction synthesis of carbohydrate derivatives from ristocetin aglycon with antibacterial and antiviral activity” (Bioorg Med Chem Lett, 2010):
Converted amounts (≈) assume the structure as drawn.

Experiments:
Bacillus subtilis = assay: Antibacterial activity against Bacillus subtilis ATCC 6633 by broth microdilution method; assay type: functional
Staphylococcus aureus [1] = assay: Antibacterial activity against methicillin-[…] Staphylococcus aureus ATCC 33591 by broth microdilution method; assay type: functional
Staphylococcus aureus [2] = assay: Antibacterial activity against methicillin-[…] Staphylococcus aureus ATCC 29213 by broth microdilution method; assay type: functional
[3] = test system: Staphylococcus epidermidis; assay: Antibacterial activity against biofilm positive Staphylococcus epidermidis ATCC 35984; assay type: functional
[4] = test system: Staphylococcus epidermidis; assay: Antibacterial activity against Staphylococcus epidermidis by broth microdilution method; assay type: functional
Enterococcus faecalis [5] = assay: Antibacterial activity against vancomycin and teicoplanin-sensitive Enterococcus faecalis ATCC 29212 by broth microdilution method; assay type: functional
Enterococcus faecalis [6] = assay: Antibacterial activity against vancomycin-resistant and teicoplanin-sensitive Enterococcus faecalis ATCC 5129 expressing VanB gene by broth microdilution method; assay type: functional
Enterococcus faecalis [7] = assay: Antibacterial activity against vancomycin and teicoplanin-resistant Enterococcus faecalis 15376 expressing VanA gene by broth microdilution method; assay type: functional
Influenza A virus [8] = assay: Antiviral activity against influenza A virus H1N1 assessed as inhibition of viral induced cytopathic effect; assay type: functional, organism-based
Influenza A virus [9] = assay: Antiviral activity against influenza A virus H1N1 assessed as cell viability by cell based MTS assay; assay type: functional, organism-based
Influenza A virus [10] = assay: Antiviral activity against Influenza A virus H3N2 assessed as inhibition of viral induced cytopathic effect; assay type: functional, organism-based
Influenza A virus [11] = assay: Antiviral activity against Influenza A virus H3N2 assessed as cell viability by cell based MTS assay; assay type: functional, organism-based
Influenza B virus [12] = assay: Antiviral activity against influenza B virus assessed as inhibition of viral induced cytopathic effect; assay type: functional, organism-based
Influenza B virus [13] = assay: Antiviral activity against influenza B virus assessed as cell viability by cell based MTS assay; assay type: functional, organism-based

Compound | MBC (Bacillus subtilis) [µg/mL] | MIC (Bacillus subtilis) [µg/mL] | MBC (Staphylococcus aureus [1]) [µg/mL] | MIC (Staphylococcus aureus [1]) [µg/mL] | MBC (Staphylococcus aureus [2]) [µg/mL] | MIC (Staphylococcus aureus [2]) [µg/mL] | MBC [3] [µg/mL] | MIC [3] [µg/mL] | MBC [4] [µg/mL] | MIC [4] [µg/mL] | MBC (Enterococcus faecalis [5]) [µg/mL] | MIC (Enterococcus faecalis [5]) [µg/mL] | MBC (Enterococcus faecalis [6]) [µg/mL] | MIC (Enterococcus faecalis [6]) [µg/mL] | EC50 (Influenza A virus [8]) [µM] | EC50 (Influenza A virus [9]) [µM] | EC50 (Influenza A virus [10]) [µM] | EC50 (Influenza A virus [11]) [µM] | EC50 (Influenza B virus [12]) [µM] | EC50 (Influenza B virus [13]) [µM] | also measured
COC(=O)[C@@H]1NC(=O)[C@H]2NC(=O)[C@H](NC(=O)[C@@H]3NC(=O)[C@H]4NC(=O)[C@H](NC(=O)[C@H](n5cc(CO[C@H]6O[C@H](COC(C)=O)[C@@H](O[C@H]7O[C@H](COC(C)=O)[C@@H](OC(C)=O)[C@H](OC(C)=O)[C@H]7OC(C)=O)[C@H](OC(C)=O)[C@H]6OC(C)=O)nn5)c5ccc(O)c(c5)Oc5cc4cc(O)c5C)[C@H](O)c4ccc(cc4)Oc4cc3cc(c4O)Oc3ccc(cc3)[C@H]2O)c2ccc(O)c(c2)-c2c(O)cc(O)cc21 | 8 (≈ 4.27 µM) | 8 (≈ 4.27 µM) | 4 (≈ 2.13 µM) | 1 (≈ 0.533 µM) | 4 (≈ 2.13 µM) | 1 (≈ 0.533 µM) | 8 (≈ 4.27 µM) | 4 (≈ 2.13 µM) | 16 (≈ 8.53 µM) | 4 (≈ 2.13 µM) | 256 (≈ 137 µM) | 4 (≈ 2.13 µM) | 256 (≈ 137 µM) | 8 (≈ 4.27 µM) | > 100 | > 100 | > 100 | > 100 | > 100 | > 100 | MBC (Enterococcus faecalis [7]): 256 µg/mL (≈ 137 µM); MIC (Enterococcus faecalis [7]): 2 µg/mL (≈ 1.07 µM)
COC(=O)[C@@H]1NC(=O)[C@H]2NC(=O)[C@H](NC(=O)[C@@H]3NC(=O)[C@H]4NC(=O)[C@H](NC(=O)[C@H](n5cc(CO[C@H]6O[C@H](COC(C)=O)[C@@H](OC(C)=O)[C@H](OC(C)=O)[C@@H]6OC(C)=O)nn5)c5ccc(O)c(c5)Oc5cc4cc(O)c5C)[C@H](O)c4ccc(cc4)Oc4cc3cc(c4O)Oc3ccc(cc3)[C@H]2O)c2ccc(O)c(c2)-c2c(O)cc(O)cc21 | 8 (≈ 5.04 µM) | 4 (≈ 2.52 µM) | 4 (≈ 2.52 µM) | 2 (≈ 1.26 µM) | 4 (≈ 2.52 µM) | 2 (≈ 1.26 µM) | 4 (≈ 2.52 µM) | 4 (≈ 2.52 µM) | 4 (≈ 2.52 µM) | 2 (≈ 1.26 µM) | 128 (≈ 80.7 µM) | 4 (≈ 2.52 µM) | 256 (≈ 161 µM) | 8 (≈ 5.04 µM) | 4 | 5 | > 100 | > 100 | > 100 | > 100 | MBC (Enterococcus faecalis [7]): 128 µg/mL (≈ 80.7 µM); MIC (Enterococcus faecalis [7]): 2 µg/mL (≈ 1.26 µM)
CCOC(=O)C1=C[C@@H](OC(CC)CC)[C@H](NC(C)=O)[C@@H](N)C1 [OSELTAMIVIR] |  |  |  |  |  |  |  |  |  |  |  |  |  |  | 12 | 11 | 32 | 38 | 23 | 27 | 
COC(=O)[C@@H]1NC(=O)[C@H]2NC(=O)[C@H](NC(=O)[C@@H]3NC(=O)[C@H]4NC(=O)[C@H](NC(=O)[C@H](n5cc(CO[C@@H]6O[C@@H](C)[C@H](OC(C)=O)[C@@H](OC(C)=O)[C@H]6OC(C)=O)nn5)c5ccc(O)c(c5)Oc5cc4cc(O)c5C)[C@H](O)c4ccc(cc4)Oc4cc3cc(c4O)Oc3ccc(cc3)[C@H]2O)c2ccc(O)c(c2)-c2c(O)cc(O)cc21 | 32 (≈ 20.9 µM) | 32 (≈ 20.9 µM) | 32 (≈ 20.9 µM) | 16 (≈ 10.5 µM) | 32 (≈ 20.9 µM) | 16 (≈ 10.5 µM) | 4 (≈ 2.62 µM) | 4 (≈ 2.62 µM) | 8 (≈ 5.23 µM) | 4 (≈ 2.62 µM) | 256 (≈ 167 µM) | 32 (≈ 20.9 µM) | 256 (≈ 167 µM) | 128 (≈ 83.7 µM) | > 100 | > 100 | > 100 | > 100 | > 100 | > 100 | MBC (Enterococcus faecalis [7]): 256 µg/mL (≈ 167 µM); MIC (Enterococcus faecalis [7]): 16 µg/mL (≈ 10.5 µM)
COC(=O)[C@@H]1NC(=O)[C@H]2NC(=O)[C@H](NC(=O)[C@@H]3NC(=O)[C@H]4NC(=O)[C@H](NC(=O)[C@H](n5cc(CO[C@H]6O[C@H](COC(C)=O)[C@@H](OC(C)=O)[C@H](OC(C)=O)[C@H]6OC(C)=O)nn5)c5ccc(O)c(c5)Oc5cc4cc(O)c5C)[C@H](O)c4ccc(cc4)Oc4cc3cc(c4O)Oc3ccc(cc3)[C@H]2O)c2ccc(O)c(c2)-c2c(O)cc(O)cc21 | 16 (≈ 10.1 µM) | 8 (≈ 5.04 µM) | 8 (≈ 5.04 µM) | 4 (≈ 2.52 µM) | 8 (≈ 5.04 µM) | 4 (≈ 2.52 µM) | 16 (≈ 10.1 µM) | 8 (≈ 5.04 µM) | 16 (≈ 10.1 µM) | 16 (≈ 10.1 µM) | 256 (≈ 161 µM) | 8 (≈ 5.04 µM) | 256 (≈ 161 µM) | 16 (≈ 10.1 µM) | 9.5 | 8.2 | > 100 | > 100 | > 100 | > 100 | MBC (Enterococcus faecalis [7]): 256 µg/mL (≈ 161 µM); MIC (Enterococcus faecalis [7]): 8 µg/mL (≈ 5.04 µM)
NC(=O)c1ncn([C@@H]2O[C@H](CO)[C@@H](O)[C@H]2O)n1 [RIBAVIRIN] |  |  |  |  |  |  |  |  |  |  |  |  |  |  |  | 11 |  |  | 4 | 4.7 | 
